# Measured values published in patent US20240261447A1, “COMPOSITIONS AND METHODS FOR TREATING CONDITIONS RELATED TO THE HEPATO[…]” (THE REGENTS OF THE UNIVERSITY OF MICHIGAN, priority 2021, published 2024).
# System: Sphincter of Oddi
# Details: co-administered with Fe-PSMPs via oral gavage; pancreatic tumor-bearing mice
# Description: Female C57BL/6 mice 6-8 weeks of age (Jackson Laboratories) were orthotopically inoculated in pancreas with KPC-Luc cells (1.5×10^4). […] During the biodistribution studies, ^68Ga-PSMPs, Fe-PSMPs or Nano-Calcium were administered in mice via oral gavage. Mice were euthanized 2 hours after oral gavage. The pancreas and other major organs were collected and wet-weighted and the radioactivity in the organs were measured by a gamma counter (Wizard 2 1-Detector, PerkinElmer).
structure (smiles),measurement,value
O=[N+]([O-])OCC(CO[N+](=O)[O-])O[N+](=O)[O-] [nitroglycerin],increase in the accumulation of Fe-PSMPs in the pancreas,10 fold
